The data set is described as follows: method code SF-AS, from DOI: 10.1080/10826079608005496.

Take `CC(C)OC(=O)CSc1ccc([N+](=O)[O-])cc1`: the logP came to 2.66. Under `COC(=O)CSc1ccc(Cl)cc1[N+](=O)[O-]` stands 2.5; under `CC(C)OC(=O)CSc1ccc([N+](=O)[O-])cc1Cl`, 3.29. Under `CC(C)OC(=O)CS(=O)(=O)c1ccc([N+](=O)[O-])cc1` stands 1.79. The same measure for `CC(C)OC(=O)CS(=O)(=O)c1ccc([N+](=O)[O-])cc1Cl`: 2.12. In the case of `CC(C)OC(=O)CS(=O)(=O)c1ccccc1[N+](=O)[O-]`, the logP was found to be 1.6. `COC(=O)CS(=O)c1ccc([N+](=O)[O-])cc1[N+](=O)[O-]` (stereo not drawn): the log partition coefficient (logP) came to 0.79. Compound `CC(C)OC(=O)CS(=O)c1ccc([N+](=O)[O-])cc1Cl` (stereo not drawn) displayed a logP of 2.04. `COC(=O)CS(=O)(=O)c1ccc(Cl)cc1[N+](=O)[O-]` yielded a lipophilicity (logP) of 1.6.

`COC(=O)CSc1ccc([N+](=O)[O-])cc1Cl` came in with a logP of 2.66. The same measure for `CC(C)OC(=O)CS(=O)(=O)c1ccc(Cl)cc1[N+](=O)[O-]`: 2.24; for `CC(C)OC(=O)CSc1ccc([N+](=O)[O-])cc1[N+](=O)[O-]`: 2.72; for `CC(C)OC(=O)CSc1ccc(Cl)cc1[N+](=O)[O-]`: 3.14.

Usually logP stands for a log measure of how a compound divides between an organic and an aqueous phase. Higher therefore signals higher lipophilicity.
